In data set [1] the test system is RKO human colon adenocarcinoma cells (RKOp27 subclone), proliferating.
Protocol: (§1) The anti-proliferative/cytotoxic activity of the compounds described herein can be tested on subclones of RKO human colon adenocarcinoma cells (Schmidt et al., Oncogene 19, 2423-2429; 2000) using the Alamar Blue cell viability assay (described in O'Brien et al. Eur J Biochem 267, 5421-5426, 2000). The compounds are dissolved as 10 mM solutions in DMSO and subsequently diluted in semi-logarithmic steps. DMSO dilutions are further diluted 1:100 into Dulbecco's modified Eagle's medium (DMEM) containing 10% fetal calf serum to a final concentration twice as much as the final concentration in the test. RKO subclones are seeded into 96 well flat bottom plates at a density of 4000 cells per well in a volume of 50 μl per well. 24 hours after seeding the 50 μl each of the compound dilutions in DMEM medium are added into each well of the 96 well plate. Each compound dilution is tested as triplicates. Wells containing untreated control cells are filled with 50 μl DMEM medium containing 1% DMSO. The cells are then incubated with the substances for 72 hours at 37° C. in a humidified atmosphere containing 5% carbon dioxide. To determine the viability of the cells, 10 μl of an Alamar Blue solution (Biosource) are added and the fluorescence is measured at an extinction of 544 nm and an emission of 590 nm. For the calculation of the cell viability the emission value from untreated cells is set as 100% viability and the emission rates of treated cells are set in relation to the values of untreated cells. Viabilities are expressed as % values. The Graphpad Prism program (GraphPad Software, Inc) is used for the calculation of EC50 values for anti-proliferative/cytotoxic activity out of the obtained dose-response curves.
(§2) Each compound dilution is tested as triplicates. Wells containing untreated control cells are filled with 50 μl DMEM medium containing 1% DMSO. The cells are then incubated with the substances for 72 hours at 37° C. in a humidified atmosphere containing 5% carbon dioxide. To determine the viability of the cells, 10 μl of an Alamar Blue solution (Biosource) are added and the fluorescence is measured at an extinction of 544 nm and an emission of 590 nm. For the calculation of the cell viability the emission value from untreated cells is set as 100% viability and the emission rates of treated cells are set in relation to the values of untreated cells. Viabilities are expressed as % values. The Graphpad Prism program is used for the calculation of EC50 values out of the obtained dose-response curves. Viability is compared of proliferating cells grown in the absence of the inducer Ponasterone A, versus viability of cells arrested by the expression of ectopic p27Kip1 induced by Ponasterone A.
For data set [2] the test system is unchanged. Briefly: Alamar Blue cell viability assay, RKO p27 uninduced (proliferating). Particulars: RKOp27, 72 h, read-out: −log EC50 [mol/l] RKO p27 uninduced (proliferating), anti-proliferative/cytotoxic activity (converted).
Protocol: as §1, §2

This is an account of results in patent US20100104659A1, “BENZOPYRANOPYRAZOLES” (priority 2006, published 2010).

Counter-ions that a name gives are not always drawn. Where only a bound is given, the exact number is not on record here.

For orientation: melting point means the temperature of the solid-liquid transition.

Take `CC(C)N(C)C(=O)N1N=C2c3cc(F)ccc3OC[C@@H]2[C@@H]1c1ccccc1` (racemic) [Example 13, (3RS,3aRS)-8-Fluoro-3-phenyl-3a,4-dihydro-3H-chromeno[4,3-c]pyrazole-2-carboxylic acid isopropyl-methyl-amide]: the melting point lay within 102 to 105 °C.
As for “(3RS,3aRS)-8-Fluoro-3-phenyl-3a,4-dihydro-3H-chromeno[4,3-c]pyrazole-2-carboxylic acid methyl-((R)-1-methyl-piperidin-3-ylmethyl)-amide and (3RS,3aRS)-8-Fluoro-3-phenyl-3a,4-dihydro-3H-chromeno[4,3-c]pyrazole-2-carboxylic acid methyl-((S)-1-methyl-piperidin-3-ylmethyl)-amide [Example 24]”, the “−log EC50 [mol/l] RKO p27 uninduced (proliferating), anti-proliferative/cytotoxic activity” value in data set [1] is given as “(proliferating) ≧7.0 mol/l”.
For `CN(CCN)C(=O)N1N=C2c3cc(F)ccc3OC[C@@H]2[C@@H]1c1ccccc1` (stereo in doubt) [Example 18, (3RS,3aRS)-8-Fluoro-3-phenyl-3a,4-dihydro-3H-chromeno[4,3-c]pyrazole-2-carboxylic acid (2-amino-ethyl)-methyl-amide], the melting point came to 113.2 °C. For the same compound, the EC50 in data set [2] is at most 100 nM.
On the same counts, the results for `CCN(C)C(=O)N1N=C2c3cc(F)ccc3OC[C@@H]2[C@@H]1c1ccccc1` (racemic) [Example 14, (3RS,3aRS)-8-Fluoro-3-phenyl-3a,4-dihydro-3H-chromeno[4,3-c]pyrazole-2-carboxylic acid ethyl-methyl-amide] are 133 to 137 °C and 100 to 1000 nM.
Turning to `CN(C)C(=O)N1N=C2c3cc(F)ccc3OC[C@@H]2[C@@H]1c1ccccc1` (racemic) [Example 7, (3RS,3aRS)-8-Fluoro-3-phenyl-3a,4-dihydro-3H-chromeno[4,3-c]pyrazole-2-carboxylic acid dimethylamide], the melting point came to 117 °C. For the same compound, in data set [2], the EC50 is 100 to 1000 nM.
For `CN(C)CCCN(C)C(=O)N1N=C2c3cc(F)ccc3OC[C@@H]2[C@@H]1c1cccc(O)c1` (racemic) (as salt: salt) [Example 6, (3RS,3aRS)-8-Fluoro-3-(3-hydroxy-phenyl)-3a,4-dihydro-3H-chromeno[4,3-c]pyrazole-2-carboxylic acid (3-dimethylamino-propyl)-methyl-amide], the melting point was determined as 145 °C.
`CN(C)CCN(C)C(=O)N1N=C2c3cc(F)ccc3OC[C@@H]2[C@@H]1c1ccccc1` (racemic) (as salt: salt) [Example 19, (3RS,3aRS)-8-Fluoro-3-phenyl-3a,4-dihydro-3H-chromeno[4,3-c]pyrazole-2-carboxylic acid (2-dimethylamino-ethyl)-methyl-amide] returned a melting point of 248 to 250 °C.
Turning to `O=C(N(C1CCNCC1)C1CC1)N1N=C2c3cc(F)ccc3OC[C@@H]2[C@@H]1c1ccccc1` (racemic) [Example 17, (3RS,3aRS)-8-Fluoro-3-phenyl-3a,4-dihydro-3H-chromeno[4,3-c]pyrazole-2-carboxylic acid cyclopropyl-piperidin-4-yl-amide], the melting point is 142 °C. In addition, the EC50 in data set [2] was 100 to 1000 nM.
As to “(3RS,3aRS)-8-Fluoro-3-phenyl-3a,4-dihydro-3H-chromeno[4,3-c]pyrazole-2-carboxylic acid ((R)-1-isopropyl-piperidin-3-ylmethyl)-methyl-amide and (3RS,3aRS)-8-Fluoro-3-phenyl-3a,4-dihydro-3H-chromeno[4,3-c]pyrazole-2-carboxylic acid ((S)-1-isopropyl-piperidin-3-ylmethyl)-methyl-amide [Example 26]”, in data set [1], the “−log EC50 [mol/l] RKO p27 uninduced (proliferating), anti-proliferative/cytotoxic activity” value was “(proliferating) ≧7.0 mol/l”.
Consider `CN(C(=O)N1N=C2c3cc(F)ccc3OC[C@@H]2[C@@H]1c1ccccc1)C1CCNCC1` (racemic) [Example 16, (3RS,3aRS)-8-Fluoro-3-phenyl-3a,4-dihydro-3H-chromeno[4,3-c]pyrazole-2-carboxylic acid methyl-piperidin-4-yl-amide], for which the melting point was 196 °C. The EC50 in data set [2] is at most 100 nM.
